# How the values were obtained:
# [1] = test system: mice overexpressing UBE3A; assay: Self-grooming experiment in mice overexpressing UBE3A (AAV in PFC); type: in vivo; settings: oral ATRA 3 mg/kg, four weeks, compared to oral solvent group
# Experimental: To further verify whether UBE3A overactivation triggered the autism phenotype in mice due to injury in the RA production process, mice injected with UBE3A-bearing AAV virus in PFC were orally administered with oral solvents (olive oil) or ATRA (3 mg/kg), administered five consecutive days per week for a total of four weeks.
# [2] = test system: mice overexpressing UBE3A; assay: Three-chamber social experiment in mice overexpressing UBE3A; type: in vivo; settings: oral ATRA 3 mg/kg
# Experimental: Three-week-aged mice were anesthetized with intraperitoneal injection of pentobarbital (50 mg/kg) and fixed on a locator (Rivend, China). 1 μL of PBS-diluted AAV virus was injected at a rate of 0.2 μL/min on both sides of the PFC region in the mouse brain using a syringe pump (Stoelting). The position of the site injection (relative to the front fontanel): AP, +2 mm; ML, ±0.5 mm; DV, −1.3 mm. […] The needle was held in place for another 3 minutes to prevent virus reflux. The mice were placed on a 37° C. electric blanket until they recovered completely from the anesthesia. 1-2 days after surgery, mice were intraperitoneally injected with 0.5 mg/ml meloxicam (Sigma, 2 mg/kg) to help the mice to relieve pain. Four weeks after surgery, mice were tested for behavior. […] Behavioral testing was performed 4 weeks after administration.
# A three-chamber social experiment was performed according to previously reported procedures (Sztainberg et al., 2015). Briefly, a transparent acrylic box for social experiment was divided into three chambers of uniform size with removable gates mounted on the partition board. An inverted iron mesh cup was placed in each of the left and right chambers. Two days before the experiment, C57BL/6 mice, which were from different family and whose age was matched with the test mice, were placed in two cups as strange mice for 1 hour each day for accommodation. Test mice were randomized into groups and accommodated to the test chamber for 1 hour before the test started. Each test mouse was placed in the center chamber for 10 minutes for self-exploration, and the chamber door was closed. In the first stage, a strange mouse was randomly placed in the left or right cup (avoiding positional bias), and the inanimate article was placed in the cup on the other side. Each test mouse was explored for 10 minutes in the open three-chambers, and the communication time between the test mice and the strange mice or the articles was manually recorded. In the second stage, the test mice were kept in the chamber of the strange mouse for 5 minutes, and then another strange mouse was placed in the cup in which the article was previously placed. The test mice were further explored for 10 minutes, and the communication time between the test mice and the familiar animals or the new animals was manually recorded.
# To further verify whether UBE3A overactivation triggered the autism phenotype in mice due to injury in the RA production process, mice injected with UBE3A-bearing AAV virus in PFC were orally administered with oral solvents (olive oil) or ATRA (3 mg/kg), administered five consecutive days per week for a total of four weeks. Then the mice were subjected to behavioral experiments (FIG. 8a).
# [3] = test system: mice overexpressing UBE3A; assay: Open field experiment in mice overexpressing UBE3A; type: in vivo; settings: oral ATRA 3 mg/kg, vs solvent group
# Experimental: (§1) Three-week-aged mice were anesthetized with intraperitoneal injection of pentobarbital (50 mg/kg) and fixed on a locator (Rivend, China). 1 μL of PBS-diluted AAV virus was injected at a rate of 0.2 μL/min on both sides of the PFC region in the mouse brain using a syringe pump (Stoelting). The position of the site injection (relative to the front fontanel): AP, +2 mm; ML, ±0.5 mm; DV, −1.3 mm. The amount of virus injected per injection site was: AAV-SynI-Flag-UBE3A and its mutant T508E, 3×10^9; and AAV-SynI-Flag-EGFP, 1.5×10^9. The needle was held in place for another 3 minutes to prevent virus reflux. The mice were placed on a 37° C. electric blanket until they recovered completely from the anesthesia. 1-2 days after surgery, mice were intraperitoneally injected with 0.5 mg/ml meloxicam (Sigma, 2 mg/kg) to help the mice to relieve pain. Four weeks after surgery, mice were tested for behavior. In the ATRA compensation experiment, one week after the injection of AAV-SynI-Flag-UBE3A virus, mice were orally administered with ATRA (Sigma, dissolved in olive oil, 3 mg/kg) or olive oil for five consecutive days. Behavioral testing was performed 4 weeks after administration.
# Mice were randomized into groups and placed in an open field instrument (Med Associates) for 30 minutes. […]
# [4] = test system: mice overexpressing UBE3A; assay: Rotating rod experiment in mice overexpressing UBE3A; type: in vivo; settings: oral ATRA 3 mg/kg
# Experimental: as §1, with “In the ATRA compensation experiment, one week after the injection of AAV-SynI-Flag-UBE3A virus, mice were orally administered with ATRA (Sigma, dissolved in olive oil, 3 mg/kg) or olive oil for five consecutive days. Behavioral testing was performed 4 weeks after administration.” left out
# After mice were randomized into groups, the motor coordination ability of the mice was recorded using a Rotamex rotarod instrument (Columnbus Instruments). […] The time before the test mice dropped off the rod was automatically recorded by an infrared detection system, and the results of the last test were finally compared.
# wild-type C57BL/6 mice [5] = assay: Self-grooming experiment in wild-type mice; type: in vivo; settings: wild-type mice, oral ATRA, same administration
# Experimental: Four-week-aged mice were given a low dose (0.1 mg/g) or a high dose (0.3 mg/g) of DSF (Sigma, dissolved in olive oil) every two days for 6 weeks. The control group was only given the solvent olive oil (Aladdin). The body weight of the mice was weighed weekly. After 6 weeks of gastric administration, the test of mouse behavior was started. The brains of the control and DSF mice were dissected and taken. After freezing with liquid nitrogen, the brain tissue was homogenized, and ATRA was quantified by the HPLC-MS/MS method as described hereinafter. The mice used in the self-grooming experiment were placed in a cage box filled with a filler having a thickness of about 0.5-1 cm for 10 minutes in advance for accommodation. Then, within 10 minutes, the time of self-grooming in mice was recorded by a double-blind experimenter through a stopwatch.
# wild-type C57BL/6 mice [6] = assay: Three-chamber social experiment in wild-type mice; type: in vivo; settings: wild-type mice, oral ATRA, same administration
# Experimental: Four-week-aged mice were given a low dose (0.1 mg/g) or a high dose (0.3 mg/g) of DSF (Sigma, dissolved in olive oil) every two days for 6 weeks. The control group was only given the solvent olive oil (Aladdin). The body weight of the mice was weighed weekly. After 6 weeks of gastric administration, the test of mouse behavior was started. The brains of the control and DSF mice were dissected and taken. After freezing with liquid nitrogen, the brain tissue was homogenized, and ATRA was quantified by the HPLC-MS/MS method as described hereinafter. A three-chamber social experiment was performed according to previously reported procedures (Sztainberg et al., 2015). Briefly, a transparent acrylic box for social experiment was divided into three chambers of uniform size with removable gates mounted on the partition board. An inverted iron mesh cup was placed in each of the left and right chambers. Two days before the experiment, C57BL/6 mice, which were from different family and whose age was matched with the test mice, were placed in two cups as strange mice for 1 hour each day for accommodation. Test mice were randomized into groups and accommodated to the test chamber for 1 hour before the test started. Each test mouse was placed in the center chamber for 10 minutes for self-exploration, and the chamber door was closed. In the first stage, a strange mouse was randomly placed in the left or right cup (avoiding positional bias), and the inanimate article was placed in the cup on the other side. […] In the second stage, the test mice were kept in the chamber of the strange mouse for 5 minutes, and then another strange mouse was placed in the cup in which the article was previously placed.
# wild-type C57BL/6 mice [7] = assay: Open field experiment in wild-type mice; type: in vivo; settings: wild-type mice, oral ATRA, same administration
# Experimental: (§2) Four-week-aged mice were given a low dose (0.1 mg/g) or a high dose (0.3 mg/g) of DSF (Sigma, dissolved in olive oil) every two days for 6 weeks. The control group was only given the solvent olive oil (Aladdin). The body weight of the mice was weighed weekly. After 6 weeks of gastric administration, the test of mouse behavior was started. The brains of the control and DSF mice were dissected and taken. After freezing with liquid nitrogen, the brain tissue was homogenized, and ATRA was quantified by the HPLC-MS/MS method as described hereinafter.
# Mice were randomized into groups and placed in an open field instrument (Med Associates) for 30 minutes. The Ethovision automatic recording software (Noldus) was used to record the time spent by the mouse in the central region (⅓ to ⅔ of length on each side of the region) and to calculate the ratio of the distance walked in the central region to the total distance.
# wild-type C57BL/6 mice [8] = assay: Rotating rod experiment in wild-type mice; type: in vivo; settings: wild-type mice, oral ATRA, same administration
# Experimental: as §2
# After mice were randomized into groups, the motor coordination ability of the mice was recorded using a Rotamex rotarod instrument (Columnbus Instruments). On the same day, the test mice were tested 3 times, each experiment was lasted 5 minutes, and the rotating rod was accelerated from 4 revolutions […]. There were at least 30 minutes between two experiments. The time before the test mice dropped off the rod was automatically recorded by an infrared detection system, and the results of the last test were finally compared.
# [9] = molecular target: T1, GST-UBE3A and ALDH1A2 proteins (Homo sapiens, UniProt O94788); assay: GST pull-down competition of UBE3A-ALDH1A2 binding; settings: peptide added in GST pull-down experiment
# T1 construct: His6 (C); made in house; host or cells: E. coli BL21
# T1 sequence (O94788 1-518): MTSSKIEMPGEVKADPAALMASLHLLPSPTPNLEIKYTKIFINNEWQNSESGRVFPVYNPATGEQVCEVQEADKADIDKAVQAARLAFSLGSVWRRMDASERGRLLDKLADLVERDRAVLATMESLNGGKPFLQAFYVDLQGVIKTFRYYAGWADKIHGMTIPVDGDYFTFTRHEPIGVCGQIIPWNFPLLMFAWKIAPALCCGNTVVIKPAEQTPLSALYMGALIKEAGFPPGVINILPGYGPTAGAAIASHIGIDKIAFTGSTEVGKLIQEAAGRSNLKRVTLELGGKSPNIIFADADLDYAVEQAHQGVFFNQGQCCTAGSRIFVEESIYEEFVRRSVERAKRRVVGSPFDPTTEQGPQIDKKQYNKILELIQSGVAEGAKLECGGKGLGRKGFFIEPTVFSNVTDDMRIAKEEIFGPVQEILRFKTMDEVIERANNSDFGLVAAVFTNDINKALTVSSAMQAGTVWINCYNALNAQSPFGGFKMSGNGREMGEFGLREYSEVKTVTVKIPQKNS
# Experimental: GST, GST-UBE3A and the truncated GST-UBE3A proteins were induced to express in BL21 competent bacterium (NEB) and purified using glutathione agarose (GE Healthcare). ALDH1A1-His6, ALDH1A2-His6 and ALDH1A3-His6 proteins were purified using Ni-NTA agarose (Qiagen). The purified ALDH1A2-His6 and GST-UBE3A proteins were incubated in a pull-down buffer (50 mM Tris-Cl, pH 8.0, 200 mM NaCl, 1 mM EDTA, 1% NP-40, 1 mM DTT, 10 mM MgCl2) at 4° C. for 2 hours. The beads were washed 4 times with the pull-down buffer and analyzed by immunoblotting. The pull-down analysis of other proteins followed the same steps.
# Since there was no known substrate for UBE3A to explain the association between the onset of ASD and UBE3A overactivation from a mechanical perspective (Glessner et al., 2009), human UBE3A protein was firstly used as a bait to screen for unknown substrate proteins by yeast two-hybrid method. […] Retinoic acid or RA, as an active metabolite of vitamin A (retinol), is required for the development and growth of higher animals including human. The synthesis of RA is accomplished in two steps, including retinol dehydrogenase (RDH10), which catalyzes retinol into retinal, and retinal dehydrogenase (ALDH1A1, ALDH1A 2, and ALDH1A 3 families which catalyze retinal into retinoic acid). Endogenous or exogenously expressed UBE3A and ALDH1A2 proteins were confirmed to form complexes in HEK-293FT cells by immunoprecipitation experiments (FIG. 2b-c). In immunofluorescence experiments, Flag-tagged and RFP-tagged UBE3A and ALDH1A2 proteins were co-localized in the cytoplasm of […] cell SH-SY5Y (FIG. 2d). The GST pull-down experiment further confirmed that the recombinant proteins UBE3A and ALDH1A2 could bind directly in vitro (FIG. 2e) and bound through the N-terminal (amino acid position of 1-280) of UBE3A (FIG. 2f). Since the ALDH1A2 protein had high sequence homology to other family members of ALDH1A1 and ALDH1A 3, it was further verified that UBE3A could bind directly to ALDH1A1 and ALDH1A3, respectively, in vitro and in vivo (FIG. 2g-j). […]
compound,measurement,setting,value
"CC1=C(/C=C/C(C)=C/C=C/C(C)=C/C(=O)O)C(C)(C)CCC1 [ATRA, all-trans retinoic acid]",time spent on self-grooming behavior,[1],significantly reduced
same,cognitive deficits in social novelty,[2],alleviated
same,time interacting with social animals vs non-social articles,[2],nearly twice as much time
same,time spent with strange mice vs familiar mice,[2],twice
same,social barriers,[2]; compared with solvent group,completely reversed
same,distance walked in open field,[3],walked more distance
same,time in the middle of the open field,[3],less time
same,sport ability (rotating rod),[4],did not affect the sport ability
same,"self-grooming experiment, solvent vs ATRA",wild-type C57BL/6 mice [5],did not cause any differences
same,"three-chamber social interaction experiment, solvent vs ATRA",wild-type C57BL/6 mice [6],did not cause any differences
same,"open field experiment, solvent vs ATRA",wild-type C57BL/6 mice [7],did not cause any differences
same,"rotating rod experiment, solvent vs ATRA",wild-type C57BL/6 mice [8],did not cause any differences
"peptide-1: SEQ ID No: 9 ASRMKRAAAKHLIERYYHQLTEGCG, targets UBE3A-ALDH1A2 binding region (peptide-1)",blocking of binding between GST-UBE3A and ALDH1A2 proteins,[9],could block the bonding between GST-UBE3A and ALDH1A2 proteins in different extend
"peptide-2: SEQ ID No: 10 NNAAAIKALELYKINAKLCDPH, targets UBE3A-ALDH1A2 binding region (peptide-2)",blocking of binding between GST-UBE3A and ALDH1A2 proteins,[9],could block the bonding between GST-UBE3A and ALDH1A2 proteins in different extend
"peptide-3: SEQ ID No: 11 AEALVQSFRKVKQHTKEELKSLQAKDEDKD, targets UBE3A-ALDH1A2 binding region (peptide-3)",blocking of binding between GST-UBE3A and ALDH1A2 proteins,[9],could block the bonding between GST-UBE3A and ALDH1A2 proteins in different extend

# Reference: US12295992B2, “Use of ALDH1A and agonist, catalyst and inhibitor thereof” (SHANGHAI INSTITUTES FOR BIOLOGICAL SCIENCES, CHINESE …, priority 2017, dated 2025)
